The record followed here is patent US11312721B2 (priority 2015, dated 2022).

Bounds are passed on as bounds.

One data set concerns the target T1, GABAA α5 receptor (Rattus norvegicus, UniProt P19969).
T1 construct: from tissue
Put plainly: GABAA α5 receptor occupancy in vivo with Ro 15-4513 tracer. Also noted: species or system Long Evans rats. The conditions noted are these: for effect on Ro 15-4513 binding in hippocampus and cerebellum: 0.01-10 mg/kg. An excerpt: Food and water were available ad libitum.

Another data set has as its target T2, GABAA receptors (α5β2γ2) (Homo sapiens, UniProt P18507+P31644).
T2 construct: expressed in transfected cells
Put plainly: Positive allosteric modulator activity: potentiation of EC20 GABA current in oocytes. The data set is classed as cell-based. The conditions noted are these: read-out: GABA α5 functional potentiation. The method, then:
On day 1, 1 ng/32 nL of GABAA α5β2γ2 cDNA was injected into one oocyte. Test starts on day 2. The cDNA injected to the oocytes was a mix of alpha, beta and gamma, their ratio is 1:1:10 (by weight) and the total weight of the mixed 3 subunits to be injected in one oocyte was 1 ng in 32 nl volume. The injected oocytes can also be tested on day 3. In such case, the cDNA amount injected to the oocytes should be reduced by 20%.
1). 8 oocytes were placed in 8 chambers of OpusXpress and superfused with Modified Barth's Saline (MBS) at 3 mL/min. Glass electrodes back-filled with 3M KCl (0.5-3 megaohms) were used.
1). Repeat the above steps 1), 2) and 3) in the control test.
2). […] Divide Itest by IGABA to obtain potentiation (%).
3). Discard all tested oocytes, new oocytes were used and the above steps 1) and 2) were repeated to test second concentration of the same compound. Each oocyte was used for only one concentration test for a single test compound. The steps were repeated for other test compounds.

The target in data set [1] is T3, α5β3γ2 GABAA receptors (Ltk cells) (Homo sapiens, UniProt P18507+P31644).
T3 construct: membranes
T3 sequence (P31644 32-462): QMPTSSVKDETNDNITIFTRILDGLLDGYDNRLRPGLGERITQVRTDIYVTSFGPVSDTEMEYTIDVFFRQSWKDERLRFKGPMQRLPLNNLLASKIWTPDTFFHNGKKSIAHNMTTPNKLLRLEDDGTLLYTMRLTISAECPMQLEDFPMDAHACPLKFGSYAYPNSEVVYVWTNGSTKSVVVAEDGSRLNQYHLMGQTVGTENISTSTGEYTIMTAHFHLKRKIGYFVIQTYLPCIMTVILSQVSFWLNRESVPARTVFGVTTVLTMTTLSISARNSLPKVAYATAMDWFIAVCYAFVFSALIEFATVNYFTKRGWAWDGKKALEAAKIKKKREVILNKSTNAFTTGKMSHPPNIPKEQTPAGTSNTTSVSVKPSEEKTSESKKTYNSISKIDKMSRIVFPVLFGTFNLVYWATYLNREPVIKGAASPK
T3 sequence (P28472 26-473 partner): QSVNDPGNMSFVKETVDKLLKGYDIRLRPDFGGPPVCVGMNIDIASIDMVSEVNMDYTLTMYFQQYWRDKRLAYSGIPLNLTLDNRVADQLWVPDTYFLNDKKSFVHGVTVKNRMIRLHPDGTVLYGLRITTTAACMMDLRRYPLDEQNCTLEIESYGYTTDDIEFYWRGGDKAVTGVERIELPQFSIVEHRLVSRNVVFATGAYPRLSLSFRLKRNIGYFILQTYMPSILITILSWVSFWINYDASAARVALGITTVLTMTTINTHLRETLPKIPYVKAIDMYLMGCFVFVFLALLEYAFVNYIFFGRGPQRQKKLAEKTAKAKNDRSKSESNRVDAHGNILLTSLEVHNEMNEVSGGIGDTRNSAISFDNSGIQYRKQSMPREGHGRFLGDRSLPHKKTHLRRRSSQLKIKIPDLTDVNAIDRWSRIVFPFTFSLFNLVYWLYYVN
T3 sequence (P18507 40-475): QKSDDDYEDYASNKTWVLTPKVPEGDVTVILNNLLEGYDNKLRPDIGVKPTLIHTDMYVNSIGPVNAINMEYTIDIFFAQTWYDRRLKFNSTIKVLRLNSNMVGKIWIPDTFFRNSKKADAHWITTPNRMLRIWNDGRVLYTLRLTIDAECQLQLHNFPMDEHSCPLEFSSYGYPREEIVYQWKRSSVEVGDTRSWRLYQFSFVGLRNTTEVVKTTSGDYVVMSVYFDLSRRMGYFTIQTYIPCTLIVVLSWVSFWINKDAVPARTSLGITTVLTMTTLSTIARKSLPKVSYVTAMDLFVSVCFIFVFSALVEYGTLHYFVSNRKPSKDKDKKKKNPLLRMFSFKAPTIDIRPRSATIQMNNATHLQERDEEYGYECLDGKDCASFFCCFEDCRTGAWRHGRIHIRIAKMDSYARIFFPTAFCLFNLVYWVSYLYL
Put plainly: Binding activity on GABAAR: inhibition of [3H]Ro15-1788 binding. The method, then: Tissue culture and Membrane Preparation: The binding was performed on Ltk cells stably expressing GABAA receptors: α1β1γ2, α2β3γ2, α3β3γ2 and α5β3γ2 (provided by Merck Co., NJ, USA). Cells were seeded in 100 mm culture plates in DMEM/F12 medium containing 10% serum and antibiotics in 5% CO2 and allowed to grow for 1-2 days. GABAAR expression was then induced by dexamethasone as follows: 0.5 μM for 1 day for α5 containing and 2 μM for 3 days for α1, α2 and α3 containing GABAARs. After induction, cells were collected by scraping into Dulbecco's Phosphate buffered saline (DPBS, pH 7.4, Invitrogen, Carlsbad, Calif., USA) and centrifuged at 150×g for 10 min. The pellet was washed twice by re-suspension and centrifugation. The cell pellets from at least 5 different preps were combined, suspended in the binding assay buffer (50 mM KH2PO4; 1 mM EDTA; 0.2 M KCl, pH 7.4) and membranes prepared by sonication (3-5 times, 30 sec) using Branson Sonifier 150 (G. Heinmann, Germany). Protein content was determined using BCA assay (Bio-Rad Labs, Reinach, Switzerland) with Bovine Serum Albumin (Sigma Aldrich, St. Louis, Mo., USA) as the standard. Aliquots were prepared and stored at −20° C. for further use in binding assays.
Ligand Binding: Saturation binding curves were obtained by incubating membranes with increasing concentrations (0.01-8 nM) of [^3H]Ro15-1788 (Flumazepil, 75-85 Ci/mmol, PerkinElmer, MA, USA), with nonspecific binding measured in the presence of 10 μM diazepam.
All binding assays were performed for 1 h at 4° C. in assay buffer. The total assay volume was 0.5 ml containing 0.2 mg/ml protein for α5 and 0.4 mg/ml for α1, α2, and α3 containing GABAAR membranes. Incubations were terminated by filtration through GF/B filters using a 24-Cell Harvestor (Brandel, Gaithersburg, Md., USA) followed by 3 washes with ice-cold assay buffer. Filters were transferred to scintillation vials, 5 ml scintillation liquid added, vortex-mixed and kept in dark. Next day, radioactivity was obtained using a scintillation counter (Beckman Coulter, Brea, Calif., USA). All assays were performed in triplicate.
Data Analyses: Saturation and inhibition curves were obtained using GraphPad Prism software (GraphPad Software, Inc., CA, USA).

The test system of a further data set is aged-impaired (AI) rats. Put plainly: Radial Arm Maze (RAM) behavioral task, spatial memory retention. Format: in vivo, rat. The conditions noted are these: four-hour delay RAM. The method, then: The effects of methyl 3,5-diphenylpyridazine-4-carboxylate on the in vivo spatial memory retention of aged-impaired (AI) rats were assessed in a Radial Arm Maze (RAM) behavioral task using vehicle control and four different dosage levels of methyl 3,5-diphenylpyridazine-4-carboxylate ([…]). RAM behavioral tasks were performed on eight AI rats. All five treatment conditions (vehicle and four dosage levels) were tested on all eight rats.
The RAM apparatus used consisted of eight equidistantly-spaced arms. An elevated maze arm (7 cm width×75 cm length) projected from each facet of an octagonal center platform (30 cm diameter, 51.5 cm height). Clear side walls on the arms were 10 cm high and were angled at […] to form a trough. A food well (4 cm diameter, 2 cm deep) was located at the distal end of each arm. Froot Loops™ (Kellogg Company) were used as rewards. Blocks constructed of Plexiglas™ (30 cm height×12 cm width) could be positioned to prevent entry to any arm. Numerous extra maze cues surrounding the apparatus were also provided.
The AI rats were initially subjected to a pre-training test (Chappell et al. Neuropharmacology 37: 481-487, 1998). The pre-training test consisted of a habituation phase (4 days), a training phase on the standard win-shift task (18 days) and another training phase (14 days) in which a brief delay was imposed between presentation of a subset of arms designated by the experimenter (e.g., 5 arms available and 3 arms blocked) and completion of the eight-arm win-shift task (i.e., with all eight arms available).
In the habituation phase, rats were familiarized to the maze for an 8-minute session on four consecutive days. In each of these sessions, food rewards were scattered on the RAM, initially on the center platform and arms and then progressively confined to the arms. After this habituation phase, a standard training protocol was used, in which a food pellet was located at the end of each arm. Rats received one trial each day for 18 days. Each daily trial terminated when all eight food pellets had been obtained or when either 16 choices were made or 15 minutes had elapsed. After completion of this training phase, a second training phase was carried out in which the memory demand was increased by imposing a brief delay during the trial. At the beginning of each trial, three arms of the eight-arm maze were blocked. Rats were allowed to obtain food on the five arms to which access was permitted during this initial “information phase” of the trial. Rats were then removed from the maze for 60 seconds, during which time the barriers on the maze were removed, thus allowing access to all eight arms. Rats were then placed back onto the center platform and allowed to obtain the remaining food rewards during this “retention test” phase of the trial. […]

T2 sequence (P31644 32-462): as the sequence (P31644 32-462) above
T2 sequence (P47870 25-512 partner limits assumed): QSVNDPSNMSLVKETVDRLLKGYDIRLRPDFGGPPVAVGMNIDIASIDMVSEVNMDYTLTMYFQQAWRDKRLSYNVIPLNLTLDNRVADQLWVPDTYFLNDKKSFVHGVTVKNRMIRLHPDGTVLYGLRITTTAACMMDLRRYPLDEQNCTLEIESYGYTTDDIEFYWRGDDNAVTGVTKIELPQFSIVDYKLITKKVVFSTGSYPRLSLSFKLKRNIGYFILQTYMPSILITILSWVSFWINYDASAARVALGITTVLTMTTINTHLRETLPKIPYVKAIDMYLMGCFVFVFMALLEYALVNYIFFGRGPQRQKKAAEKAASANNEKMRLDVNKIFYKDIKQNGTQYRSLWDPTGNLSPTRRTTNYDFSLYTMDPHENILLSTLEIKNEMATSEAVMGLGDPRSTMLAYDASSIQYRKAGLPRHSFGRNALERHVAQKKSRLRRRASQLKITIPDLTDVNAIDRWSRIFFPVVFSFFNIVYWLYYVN
T2 sequence (P18507 40-475): as the sequence (P18507 40-475) above
T1 sequence (P19969 32-464 limits assumed): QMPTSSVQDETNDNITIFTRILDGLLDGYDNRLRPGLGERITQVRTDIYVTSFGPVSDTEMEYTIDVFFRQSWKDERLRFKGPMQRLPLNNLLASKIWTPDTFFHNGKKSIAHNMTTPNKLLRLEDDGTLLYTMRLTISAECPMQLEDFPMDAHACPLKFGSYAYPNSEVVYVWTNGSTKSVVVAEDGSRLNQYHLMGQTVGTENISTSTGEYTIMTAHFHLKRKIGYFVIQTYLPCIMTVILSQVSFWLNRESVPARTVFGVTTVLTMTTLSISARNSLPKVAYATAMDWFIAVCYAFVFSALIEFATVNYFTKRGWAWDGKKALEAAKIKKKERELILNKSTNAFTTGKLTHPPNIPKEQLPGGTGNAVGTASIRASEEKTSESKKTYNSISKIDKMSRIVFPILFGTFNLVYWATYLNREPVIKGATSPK

Turning to `CCOC(=O)c1ncn2c1CN(C)C(=O)c1cc(N=[N+]=[N-])ccc1-2` [Ro 15-4513], at GABAA α5 receptor (1 μg/kg, i.v. tracer after vehicle), the “tracer level, hippocampus compared with cerebellum” value is above 5 fold.

In the case of `CCOC(=O)c1ncn2c1Cn1c(C)nnc1-c1cc(OC)ccc1-2` [Ethyl 3-methoxy-7-methyl-9H-benzo[f]imidazo[1,5-a][1,2,4]tri], on GABAA α5 receptor (i.v.), the “effect on Ro 15-4513 binding in hippocampus and cerebellum” value is given as “blocked the binding of Ro154513 in the hippocampus but did not affect binding of Ro15413 in the cerebellum”.

For the molecule `COCc1nnc2n1Cc1c(C3=NC(C)CO3)ncn1-c1ccc(Cl)cc1-2` (centres unmarked) [Compound 243], the activation at 0.1 µM on GABAA receptors (α5β2γ2) is 20 to 49%. The Ki in data set [1] was below 0.099 µM.

With `COCc1nnc2n1Cc1c(C3=N[C@@H](c4ccccc4)CO3)ncn1-c1ccc(Cl)cc1-2` [Compound 264], at GABAA receptors (α5β2γ2), the activation at 0.1 µM lay in the range of 20 to 49%. For the same molecule, the inhibition constant (Ki) in data set [1] was below 0.099 µM.

For the molecule `COc1ccc2c(c1)-c1nnc(COCc3ccccc3F)n1Cc1c(-c3noc(C(C)C)n3)ncn1-2` [Compound 184], the activation at 0.1 µM at GABAA receptors (α5β2γ2) fell in the range of 20 to 49%. The Ki in data set [1] was below 0.099 µM.

On to `CCOC(=O)c1ncn2c1Cn1c(C)nnc1-c1cc(OC)ccc1-2` [ethyl 3-methoxy-7-methyl-9H-benzo[f]imidazo[1,5-a][1,2,4]tri], for which the “memory performance relative to vehicle control” value with aged-impaired (AI) rats (3 mg/kg, t(7)=4.13, p=0.004, or t(7)=3.08, p=0.018) is reported as “significantly improved memory performance”; with aged-impaired (AI) rats (10 mg/kg, t(7)=2.82, p=0.026), “significantly improved memory performance”. In addition, the “effect on Ro 15-4513 binding in hippocampus and cerebellum” value on GABAA α5 receptor (i.v.) is “reduced Ro 15-4513 binding in hippocampus, without affecting cerebellum levels of Ro 15-4513”. In addition, the “GABAA α5 receptor occupancy” value on GABAA α5 receptor (10 mg/kg, i.v.) is recorded as above 90%.

Turning to `C#Cc1ncn2c1Cn1c(COC)nnc1-c1cc(Cl)ccc1-2` [Compound 256], the activation at 0.1 µM at GABAA receptors (α5β2γ2) was 20 to 49%. Moreover, the Ki in data set [1] is below 0.099 µM.

With `COc1ccc2c(c1)-n1nncc1Cc1c(C3=N[C@H](c4ccccc4)CO3)ncn1-2` [Compound 290], the activation at 0.1 µM at GABAA receptors (α5β2γ2) was in the range of 20 to 49%. The molecule further gave a Ki in data set [1] below 0.099 µM.

As for `CCOCc1nnc2n1Cc1c(-c3nc(C)no3)ncn1-c1ccc(Cl)cc1-2` [Compound 255], the activation at 0.1 µM at GABAA receptors (α5β2γ2) lay within 20 to 49%. The molecule further had a Ki in data set [1] below 0.099 µM.

Consider `CCOCc1nnc2n1Cc1c(-c3nc(C(C)C)no3)ncn1-c1ccc(Cl)cc1-2` [Compound 254], for which the activation at 0.1 µM at GABAA receptors (α5β2γ2) fell in the range of 20 to 49%. This molecule also displayed a Ki in data set [1] below 0.099 µM.

In the case of `COc1ccc2c(c1)-n1nnc(COc3cccc(Br)c3)c1Cc1c(C#N)ncn1-2` [Compound 225], on GABAA receptors (α5β2γ2), the activation at 0.1 µM was 20 to 49%. In addition, in data set [1], the Ki is below 0.099 µM.

On to `COCc1nnc2n1Cc1c(-c3nc(C)no3)ncn1-c1ccc(Cl)cc1-2` [Compound 198], for which the activation at 0.1 µM on GABAA receptors (α5β2γ2) lay in the range of 20 to 49%. This molecule also gave an inhibition constant Ki in data set [1] below 0.099 µM.

In the case of `CC(C)c1nc(-c2ncn3c2Cn2c(COc4cccc(F)c4)nnc2-c2cc(F)ccc2-3)no1` [Compound 188], at GABAA receptors (α5β2γ2), the activation at 0.1 µM is 20 to 49%. Besides, the Ki in data set [1] was below 0.099 µM.

As to `CCc1nc(-c2ncn3c2Cc2c(Cc4ccc(F)cc4)nnn2-c2cc(OC)ccc2-3)no1` [Compound 195], on GABAA receptors (α5β2γ2), the activation at 0.1 µM was in the range of 20 to 49%. The molecule further yielded an inhibitory constant (Ki) in data set [1] below 0.099 µM.

As to `CC(C)c1nc(-c2ncn3c2Cn2c(COc4cccnc4)nnc2-c2cc(F)ccc2-3)no1` [Compound 185], at GABAA receptors (α5β2γ2), the activation at 0.1 µM is above 50%. The same molecule came in with a Ki in data set [1] below 0.099 µM.

In the case of `COc1ccc2c(c1)-n1nnc(COc3ccc(F)cc3)c1Cc1c(-c3noc(C)n3)ncn1-2` [Compound 180], at GABAA receptors (α5β2γ2), the activation at 0.1 µM was in the range of 20 to 49%. Moreover, the Ki in data set [1] is below 0.099 µM.

Take `COc1ccc2c(c1)-n1nncc1Cc1c(-c3nc(C(C)C)no3)ncn1-2` [Compound 257]: the activation at 0.1 µM on GABAA receptors (α5β2γ2) is 20 to 49%. In addition, the Ki in data set [1] was below 0.099 µM.

With `COCc1nnc2n1Cc1c(-c3noc(C(C)C)n3)ncn1-c1ccc(F)cc1-2` [Compound 186], the activation at 0.1 µM on GABAA receptors (α5β2γ2) was above 50%. This molecule also gave an inhibition constant (Ki) in data set [1] below 0.099 µM.

Turning to `COCc1nnc2n1Cc1c(-c3ncco3)ncn1-c1ccc(Cl)cc1-2` [Compound 249], the activation at 0.1 µM on GABAA receptors (α5β2γ2) lay within 20 to 49%. The same molecule registered a Ki in data set [1] below 0.099 µM.

`COCc1nnc2n1Cc1c(C3=NCCO3)ncn1-c1ccc(Cl)cc1-2` [Compound 238]: the activation at 0.1 µM at GABAA receptors (α5β2γ2) lay within 20 to 49%. Also, the Ki in data set [1] was below 0.099 µM.

For `FC(F)=Cc1ncn2c1Cn1c(COc3ccccc3)nnc1-c1cc(Cl)ccc1-2` [Compound 199], the activation at 0.1 µM at GABAA receptors (α5β2γ2) was in the range of 20 to 49%. The same molecule had an inhibition constant (Ki) in data set [1] below 0.099 µM.

As for `COc1ccc2c(c1)-c1nnc(COCc3cccc(F)c3)n1Cc1c(-c3noc(C(C)C)n3)ncn1-2` [Compound 183], the activation at 0.1 µM at GABAA receptors (α5β2γ2) lay within 20 to 49%. This molecule also returned a Ki in data set [1] below 0.099 µM.

As usually defined, the Ki is a measure of affinity in units of concentration, obtained from inhibition or displacement. A higher Ki goes with a looser hold on the target.
